Data published in PubChem BioAssay AID1963967 (Molecular Pharmacology Branch, DTP, NCI, 2024).
pIC50: −log10 of the molar value.

Tested on: 855422-203-R-J1-PDC spheroids with HUVEC/MSC, viability
Assay: Anticancer human tumor 855422-203-R-J1-PDC patient-derived bladder carcinoma cell line growth inhibition [PI3K]
Details: for pIC50: curve of first compound; for viability, T/C: stronger effect = lower value
Outline: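 Targeted small molecules plus PI3K inhibitors, half-log dose series from Cmax (default top 10 microM), were applied to heterotypic spheroids of cancer cells with HUVEC and MSCs. Viability indicated growth inhibition.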

[1] = second compound 0.0316 µM, first compound 0.0316 µM
[2] = second compound 0.0316 µM, first compound 0.1 µM
[3] = second compound 0.0316 µM, first compound 0.316 µM
[4] = second compound 0.0316 µM, first compound 1 µM
[5] = second compound 0.0316 µM, first compound 3.16 µM
[6] = second compound 0.0316 µM, first compound 10 µM
[7] = second compound 0.1 µM, first compound 0.0316 µM
[8] = second compound 0.1 µM, first compound 0.1 µM
[9] = second compound 0.1 µM, first compound 0.316 µM
[10] = second compound 0.1 µM, first compound 1 µM
[11] = second compound 0.1 µM, first compound 3.16 µM
[12] = second compound 0.1 µM, first compound 10 µM
[13] = second compound 0.316 µM, first compound 0.0316 µM
[14] = second compound 0.316 µM, first compound 0.1 µM
[15] = second compound 0.316 µM, first compound 0.316 µM
[16] = second compound 0.316 µM, first compound 1 µM
[17] = second compound 0.316 µM, first compound 3.16 µM
[18] = second compound 0.316 µM, first compound 10 µM
[19] = second compound 1 µM, first compound 0.0316 µM
[20] = second compound 1 µM, first compound 0.1 µM
[21] = second compound 1 µM, first compound 0.316 µM
[22] = second compound 1 µM, first compound 1 µM
[23] = second compound 1 µM, first compound 3.16 µM
[24] = second compound 1 µM, first compound 10 µM
[25] = second compound 3.16 µM, first compound 0.0316 µM
[26] = second compound 3.16 µM, first compound 0.1 µM
[27] = second compound 3.16 µM, first compound 0.316 µM
[28] = second compound 3.16 µM, first compound 1 µM
[29] = second compound 3.16 µM, first compound 3.16 µM
[30] = second compound 3.16 µM, first compound 10 µM
[31] = second compound 10 µM, first compound 0.0316 µM
[32] = second compound 10 µM, first compound 0.1 µM
[33] = second compound 10 µM, first compound 0.316 µM
[34] = second compound 10 µM, first compound 1 µM
[35] = second compound 10 µM, first compound 3.16 µM
[36] = second compound 10 µM, first compound 10 µM
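Also: agents incubated with spheroids for one week before read-out.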
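For viability, T/C in this document: 100% = DMSO vehicle-treated control wells.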

**Q.** With `CCCS(=O)(=O)Nc1ccc(F)c(C(=O)c2c[nH]c3ncc(-c4ccc(Cl)cc4)cc23)c1F` + Cc1nc(NC(=O)N2CCCC2C(N)=O)sc1-c1ccnc(C(C)(C)C(F)(F)F)c1 as the compound, how does the pIC50 (second compound 0.0316 µM) read?
**A.** The pIC50 was 5.41.

**Q.** And the pIC50 (second compound 0.1 µM)?
**A.** The pIC50 was 5.41.

**Q.** And the pIC50 (second compound 0.316 µM)?
**A.** The pIC50 was 5.35.

**Q.** What about the pIC50 (second compound 1 µM) of the same compound?
**A.** The pIC50 was 5.45.

**Q.** And the pIC50 (second compound 3.16 µM)?
**A.** Its pIC50 is greater than 7.50.

**Q.** And the pIC50 (second compound 10 µM)?
**A.** Its pIC50 is greater than 7.50.

**Q.** What about the viability, T/C [1] of the same compound?
**A.** Its viability, T/C is 97.7%.

**Q.** And the viability, T/C [2]?
**A.** Its viability, T/C is 89.5%.

**Q.** What about the viability, T/C [3] of the same compound?
**A.** Its viability, T/C is 109%.

**Q.** What about the viability, T/C [4] of the same compound?
**A.** The viability, T/C was 82.5%.

**Q.** And the viability, T/C [5]?
**A.** The viability, T/C was 62.3%.

**Q.** What about the viability, T/C [6] of the same compound?
**A.** Its viability, T/C is 0.1%.

**Q.** And the viability, T/C [7]?
**A.** Its viability, T/C is 88.2%.

**Q.** What about the viability, T/C [8] of the same compound?
**A.** Its viability, T/C is 90.2%.

**Q.** And the viability, T/C [9]?
**A.** The viability, T/C was 100%.

**Q.** And the viability, T/C [10]?
**A.** Its viability, T/C is 90.7%.

**Q.** And the viability, T/C [11]?
**A.** The viability, T/C was 61.1%.

**Q.** What about the viability, T/C [12] of the same compound?
**A.** The viability, T/C was 0.16%.

**Q.** And the viability, T/C [13]?
**A.** The viability, T/C was 86.4%.

**Q.** What about the viability, T/C [14] of the same compound?
**A.** Its viability, T/C is 87.4%.

**Q.** And the viability, T/C [15]?
**A.** The viability, T/C was 99.1%.

**Q.** What about the viability, T/C [16] of the same compound?
**A.** The viability, T/C was 85.3%.

**Q.** What about the viability, T/C [17] of the same compound?
**A.** The viability, T/C was 70.8%.

**Q.** And the viability, T/C [18]?
**A.** The viability, T/C was 0.13%.

**Q.** What about the viability, T/C [19] of the same compound?
**A.** Its viability, T/C is 71.4%.

**Q.** And the viability, T/C [20]?
**A.** Its viability, T/C is 74%.

**Q.** What about the viability, T/C [21] of the same compound?
**A.** Its viability, T/C is 68.9%.

**Q.** And the viability, T/C [22]?
**A.** The viability, T/C was 72.8%.

**Q.** And the viability, T/C [23]?
**A.** Its viability, T/C is 53.6%.

**Q.** And the viability, T/C [24]?
**A.** The viability, T/C was 0.11%.

**Q.** And the viability, T/C [25]?
**A.** Its viability, T/C is 45.3%.

**Q.** What about the viability, T/C [26] of the same compound?
**A.** The viability, T/C was 46.2%.

**Q.** And the viability, T/C [27]?
**A.** The viability, T/C was 38.4%.

**Q.** What about the viability, T/C [28] of the same compound?
**A.** Its viability, T/C is 44%.

**Q.** What about the viability, T/C [29] of the same compound?
**A.** Its viability, T/C is 25.9%.

**Q.** And the viability, T/C [30]?
**A.** Its viability, T/C is 0.29%.

**Q.** What about the viability, T/C [31] of the same compound?
**A.** Its viability, T/C is 25.3%.

**Q.** What about the viability, T/C [32] of the same compound?
**A.** The viability, T/C was 17.9%.

**Q.** And the viability, T/C [33]?
**A.** The viability, T/C was 23.2%.

**Q.** And the viability, T/C [34]?
**A.** The viability, T/C was 23.5%.

**Q.** What about the viability, T/C [35] of the same compound?
**A.** Its viability, T/C is 13.6%.

**Q.** And the viability, T/C [36]?
**A.** The viability, T/C was 0.19%.

**Q.** `Cn1cnc2c(F)c(Nc3ccc(Br)cc3Cl)c(C(=O)NOCCO)cc21` was tested. Which viability, T/C (compound 0.00949 µM) did it give?
**A.** Its viability, T/C is 100% [middle of 4 runs].

**Q.** What about the viability, T/C (compound 0.03 µM) of the same compound?
**A.** Its viability, T/C is 94.8% [middle of 4 runs].

**Q.** And the viability, T/C (compound 0.0949 µM)?
**A.** Its viability, T/C is 101% [middle of 4 runs].

**Q.** And the viability, T/C (compound 0.3 µM)?
**A.** Its viability, T/C is 88% [middle of 4 runs].

**Q.** And the viability, T/C (compound 0.949 µM)?
**A.** The viability, T/C was 87.5% [middle of 4 runs].

**Q.** And the viability, T/C (compound 3 µM)?
**A.** The viability, T/C was 47% [middle of 4 runs].

**Q.** And the IC50 (curve of compound)?
**A.** Its IC50 is 2.81 µM [middle of 4 runs].

**Q.** `Cn1ncc(Cl)c1-c1cc(C(=O)NC(CN)Cc2cccc(F)c2)sc1Cl` (stereo unspecified) + Cc1nc(NC(=O)N2CCCC2C(N)=O)sc1-c1ccnc(C(C)(C)C(F)(F)F)c1 was tested. Which pIC50 (second compound 0.0316 µM) did it give?
**A.** Its pIC50 is 5.99.

**Q.** What about the pIC50 (second compound 0.1 µM) of the same compound?
**A.** The pIC50 was 5.94.

**Q.** And the pIC50 (second compound 0.316 µM)?
**A.** Its pIC50 is 6.05.

**Q.** What about the pIC50 (second compound 1 µM) of the same compound?
**A.** Its pIC50 is 6.20.

**Q.** And the pIC50 (second compound 3.16 µM)?
**A.** The pIC50 was greater than 7.50.

**Q.** What about the pIC50 (second compound 10 µM) of the same compound?
**A.** Its pIC50 is greater than 7.50.

**Q.** What about the viability, T/C [1] of the same compound?
**A.** The viability, T/C was 100%.

**Q.** What about the viability, T/C [2] of the same compound?
**A.** The viability, T/C was 78%.

**Q.** And the viability, T/C [3]?
**A.** Its viability, T/C is 71%.

**Q.** What about the viability, T/C [4] of the same compound?
**A.** The viability, T/C was 50.1%.

**Q.** And the viability, T/C [5]?
**A.** Its viability, T/C is 32.6%.

**Q.** And the viability, T/C [6]?
**A.** The viability, T/C was 9.93%.

**Q.** And the viability, T/C [7]?
**A.** Its viability, T/C is 89.6%.

**Q.** What about the viability, T/C [8] of the same compound?
**A.** Its viability, T/C is 77.6%.

**Q.** And the viability, T/C [9]?
**A.** Its viability, T/C is 71.8%.

**Q.** And the viability, T/C [10]?
**A.** Its viability, T/C is 50.9%.

**Q.** What about the viability, T/C [11] of the same compound?
**A.** Its viability, T/C is 32.9%.

**Q.** And the viability, T/C [12]?
**A.** The viability, T/C was 9.68%.

**Q.** What about the viability, T/C [13] of the same compound?
**A.** Its viability, T/C is 89.3%.

**Q.** And the viability, T/C [14]?
**A.** The viability, T/C was 74.6%.

**Q.** And the viability, T/C [15]?
**A.** The viability, T/C was 64.8%.

**Q.** And the viability, T/C [16]?
**A.** The viability, T/C was 52.4%.

**Q.** And the viability, T/C [17]?
**A.** The viability, T/C was 25.8%.

**Q.** What about the viability, T/C [18] of the same compound?
**A.** The viability, T/C was 7.56%.

**Q.** What about the viability, T/C [19] of the same compound?
**A.** The viability, T/C was 64.8%.

**Q.** What about the viability, T/C [20] of the same compound?
**A.** Its viability, T/C is 65.3%.

**Q.** What about the viability, T/C [21] of the same compound?
**A.** The viability, T/C was 55.5%.

**Q.** What about the viability, T/C [22] of the same compound?
**A.** The viability, T/C was 46.5%.

**Q.** What about the viability, T/C [23] of the same compound?
**A.** Its viability, T/C is 21.3%.

**Q.** And the viability, T/C [24]?
**A.** Its viability, T/C is 3.26%.

**Q.** And the viability, T/C [25]?
**A.** The viability, T/C was 46.9%.

**Q.** What about the viability, T/C [26] of the same compound?
**A.** Its viability, T/C is 43%.

**Q.** And the viability, T/C [27]?
**A.** Its viability, T/C is 41.9%.

**Q.** What about the viability, T/C [28] of the same compound?
**A.** The viability, T/C was 31.4%.

**Q.** And the viability, T/C [29]?
**A.** The viability, T/C was 13.9%.

**Q.** What about the viability, T/C [30] of the same compound?
**A.** Its viability, T/C is 2.81%.

**Q.** And the viability, T/C [31]?
**A.** The viability, T/C was 25.8%.

**Q.** And the viability, T/C [32]?
**A.** Its viability, T/C is 23.4%.

**Q.** What about the viability, T/C [33] of the same compound?
**A.** Its viability, T/C is 20.3%.

**Q.** And the viability, T/C [34]?
**A.** The viability, T/C was 16.3%.

**Q.** What about the viability, T/C [35] of the same compound?
**A.** Its viability, T/C is 9.69%.

**Q.** What about the viability, T/C [36] of the same compound?
**A.** The viability, T/C was 0.43%.
